14 compounds from PubChem BioAssay (NCI) can be followed below.

The structures appear in SMILES notation.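 Briefly, cells in 96-well plates were exposed to five compound concentrations for 48 h, and endpoints were estimated by linear interpolation. GI50 is the concentration that inhibits growth by half. TGI denotes the concentration required for complete inhibition of growth.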

Among the test systems are HT29 colon; NCI-H23 lung; 786-0 renal; MDA-MB-435; OVCAR-4 ovarian; UO-31 renal; NCI-H522 lung; MOLT-4 leukemia; DU-145 prostate; UACC-257 melanoma.
What all share (assay): inhibition of tumour cell growth, NCI panel, 48 h

As for `COc1ccc(C=C2C(=O)NC(=O)NC2=O)cc1OCc1ccccc1`, the GI50 in the experiment with HT29 colon is 31.7 µg/mL; with NCI-H23 lung it was 31.7 µg/mL; in the experiment with 786-0 renal, 52.9 µg/mL; in the experiment with MDA-MB-435 it was 20.2 µg/mL; in the experiment with OVCAR-4 ovarian, 35.6 µg/mL; in the experiment on UO-31 renal, 33 µg/mL. The TGI in the experiment with MDA-MB-435 is 56.1 µg/mL.
Consider `CNc1ncc2cc(Oc3ccc(F)cc3F)c(=O)n(C)c2n1`, for which the GI50 with HT29 colon, in the experiment on NCI-H23 lung, in the experiment on NCI-H522 lung, in the experiment on MOLT-4 leukemia, in the experiment with 786-0 renal and with DU-145 prostate was > 25000 nM in each case. The GI50 with MDA-MB-435 is > 25000 nM; in the experiment on OVCAR-4 ovarian, > 25000 nM; in the experiment on UACC-257 melanoma, > 25 µM; with UO-31 renal it was > 25000 nM. The TGI in the experiment with HT29 colon, in the experiment with NCI-H23 lung, in the experiment on NCI-H522 lung, in the experiment with MOLT-4 leukemia, with 786-0 renal and with DU-145 prostate was > 25 µM in each case. Also, the TGI in the experiment on MDA-MB-435, in the experiment with OVCAR-4 ovarian, with UACC-257 melanoma and in the experiment on UO-31 renal was > 25 µM each time.
For the compound `CCC(=O)c1c(C(F)(F)F)n([O-])c2ccccc2[n+]1=O`, the GI50 is 1410 nM in the experiment on HT29 colon; 1100 nM with NCI-H23 lung; 2360 nM in the experiment on NCI-H522 lung; 577 nM in the experiment on MOLT-4 leukemia; 1660 nM in the experiment with 786-0 renal; 1590 nM in the experiment on DU-145 prostate. In addition, the GI50 in the experiment with MDA-MB-435 was 2410 nM; in the experiment on OVCAR-4 ovarian, 5650 nM; in the experiment on UACC-257 melanoma, 10.8 µM; with UO-31 renal, 829 nM. The TGI with HT29 colon was 11 µM; with NCI-H23 lung it was 4.37 µM; in the experiment with NCI-H522 lung, > 21.4 µM; with MOLT-4 leukemia, > 100 µM; with 786-0 renal, 8.17 µM; in the experiment with DU-145 prostate, 3.27 µM. Further, the TGI is 10.4 µM in the experiment with MDA-MB-435, 31.2 µM in the experiment with OVCAR-4 ovarian, 35.3 µM with UACC-257 melanoma and > 20.2 µM with UO-31 renal.
For the compound `Cc1c(C(N)=O)sc2c1c(=O)n(Cc1ccccc1)c1nnc(S(=O)(=O)CC(=O)Nc3ccc(Cl)cc3)n21`, the GI50 in the experiment on HT29 colon is 6820 nM; in the experiment with NCI-H23 lung, 3130 nM; in the experiment on NCI-H522 lung, 2530 nM; in the experiment on MOLT-4 leukemia, 15600 nM; in the experiment on 786-0 renal, 3070 nM; in the experiment with DU-145 prostate, 7290 nM. Further, the GI50 with MDA-MB-435 is 3610 nM; in the experiment with OVCAR-4 ovarian, 1930 nM; in the experiment with UACC-257 melanoma it was 2.68 µM; in the experiment with UO-31 renal, 2860 nM. The TGI in the experiment with HT29 colon stood at 26 µM; with NCI-H23 lung it was 9.71 µM; in the experiment on NCI-H522 lung, 6.73 µM; in the experiment with MOLT-4 leukemia it was 46.8 µM; in the experiment with 786-0 renal, 12.2 µM; in the experiment on DU-145 prostate it was 36.7 µM. For the same compound, the TGI with MDA-MB-435 was 17 µM; in the experiment with OVCAR-4 ovarian, 5.47 µM; in the experiment on UACC-257 melanoma it was 7.88 µM; with UO-31 renal, 11.3 µM.
Regarding `O=c1[nH]nc(-c2ccccc2)c2c(-c3ccccc3)onc12`, the GI50 in the experiment with HT29 colon was 391 nM; with NCI-H23 lung it was 4830 nM; with NCI-H522 lung it was 648 nM; in the experiment on MOLT-4 leukemia it was 564 nM; in the experiment on 786-0 renal, 5470 nM; in the experiment on DU-145 prostate, 1790 nM. Moreover, the GI50 in the experiment with OVCAR-4 ovarian is 2400 nM; with UACC-257 melanoma, 6.7 µM; with UO-31 renal, 592 nM. In addition, the TGI in the experiment on HT29 colon is > 100 µM; with NCI-H23 lung, > 100 µM; with NCI-H522 lung, 24.3 µM; with MOLT-4 leukemia, > 65.3 µM; in the experiment on 786-0 renal, > 100 µM; with DU-145 prostate, 27.2 µM. In addition, the TGI in the experiment with OVCAR-4 ovarian, with UACC-257 melanoma and in the experiment with UO-31 renal was > 100 µM throughout.
As for `CN(C)C(=S)SCC(N)=O`, the TGI in the experiment on HT29 colon, in the experiment on NCI-H23 lung, in the experiment on NCI-H522 lung, in the experiment with MOLT-4 leukemia, in the experiment with 786-0 renal and with DU-145 prostate was > 100 µM throughout. In addition, the TGI in the experiment with MDA-MB-435, in the experiment with OVCAR-4 ovarian and in the experiment with UACC-257 melanoma was > 100 µM in each case.
As for `Cn1c2ccccc2c2[nH]c3ccccc3c(=O)c21`, the TGI with HT29 colon, in the experiment with NCI-H23 lung, with MOLT-4 leukemia, in the experiment on 786-0 renal, in the experiment on DU-145 prostate and in the experiment with MDA-MB-435 was > 100 µM in each case. Also, the TGI in the experiment with UACC-257 melanoma and in the experiment on UO-31 renal was > 100 µM each time.
Regarding `Cc1cn(Cc2ccccc2CCl)c(=O)n(Cc2ccccc2CCl)c1=O`, the GI50 is 2040 nM with HT29 colon; 2190 nM with NCI-H23 lung; 1300 nM with NCI-H522 lung; 1670 nM with 786-0 renal; 1930 nM in the experiment on DU-145 prostate; 1970 nM with MDA-MB-435. Further, the GI50 in the experiment on OVCAR-4 ovarian is 1980 nM; in the experiment with UACC-257 melanoma, 2.25 µM; in the experiment on UO-31 renal it was 1650 nM. In addition, the TGI in the experiment with HT29 colon was 5.69 µM; in the experiment with NCI-H23 lung it was 5.43 µM; in the experiment on NCI-H522 lung, 2.94 µM; in the experiment on 786-0 renal it was 3.39 µM; in the experiment on DU-145 prostate, 3.68 µM; in the experiment on MDA-MB-435, 4.07 µM. The TGI was 4.83 µM with OVCAR-4 ovarian, 4.86 µM in the experiment with UACC-257 melanoma and 3.17 µM in the experiment with UO-31 renal.
As for `CN(C)CC1=Nc2cccc3cccc(c23)N1`, the TGI with HT29 colon worked out at 53.7 µM; in the experiment with NCI-H23 lung, 49.9 µM; in the experiment with 786-0 renal, 25.8 µM; with DU-145 prostate, 30.9 µM; with MDA-MB-435 it was 38.1 µM; in the experiment with OVCAR-4 ovarian, 26.6 µM. In addition, the TGI with UACC-257 melanoma is 31 µM; with UO-31 renal, 23 µM.
Take `CC(=O)n1c(-c2ccc(Cl)c(Cl)c2)cn(-c2ccc(Cl)cc2)c1=O`: the GI50 in the experiment with HT29 colon was 57700 nM; in the experiment with NCI-H522 lung, 19300 nM; in the experiment on MOLT-4 leukemia, 23300 nM; with 786-0 renal, 13400 nM; in the experiment with DU-145 prostate, 17400 nM; with MDA-MB-435, 84100 nM. The GI50 with OVCAR-4 ovarian is 20000 nM; with UACC-257 melanoma it was 22.4 µM; with UO-31 renal, 24700 nM. For the same compound, the TGI in the experiment with HT29 colon was > 100 µM; in the experiment on NCI-H522 lung, 53.6 µM; in the experiment on MOLT-4 leukemia, 90.2 µM; in the experiment with 786-0 renal, 32.9 µM; in the experiment on DU-145 prostate, 45.8 µM; with MDA-MB-435, > 100 µM. Besides, the TGI in the experiment on OVCAR-4 ovarian came out at 57.7 µM; in the experiment on UACC-257 melanoma, 66.8 µM; with UO-31 renal, 51.4 µM.
Regarding `COc1ccc2c(c1)C=C1CSCC3=Cc4cc(OC)ccc4OC13O2`, the GI50 with HT29 colon is 340 nM; in the experiment with NCI-H23 lung, 1010 nM; with NCI-H522 lung, 232 nM; in the experiment on MOLT-4 leukemia, 486 nM; with 786-0 renal, 821 nM; in the experiment with DU-145 prostate it was 402 nM. The GI50 in the experiment on OVCAR-4 ovarian was 1540 nM; in the experiment with UACC-257 melanoma, > 100 µM; in the experiment with UO-31 renal it was 642 nM. Further, the TGI with HT29 colon was > 100 µM; in the experiment on NCI-H23 lung it was > 100 µM; with NCI-H522 lung it was 0.937 µM; with MOLT-4 leukemia, > 100 µM; in the experiment on 786-0 renal it was > 100 µM; in the experiment with DU-145 prostate, > 100 µM. For the same compound, the TGI in the experiment on OVCAR-4 ovarian, in the experiment with UACC-257 melanoma and in the experiment on UO-31 renal was > 100 µM throughout.
For `COc1ccc(OC)c(/C=N/N=C2\C(=O)Nc3c(Cl)cc(Cl)cc32)c1`, the TGI in the experiment with HT29 colon, in the experiment on NCI-H23 lung, with MOLT-4 leukemia, in the experiment with 786-0 renal, with MDA-MB-435 and in the experiment on OVCAR-4 ovarian was > 100 µM each time. Further, the TGI with UACC-257 melanoma and in the experiment with UO-31 renal was > 100 µM each time.
Regarding `COc1cc2c(cc1OCCCCCn1c3ccccc3c3ccccc31)N=C[C@@H]1CCCN1C2=O`, the GI50 with HT29 colon was 2080 nM; with NCI-H23 lung, 2690 nM; in the experiment with MOLT-4 leukemia it was 2150 nM; in the experiment on 786-0 renal, 1730 nM; in the experiment on DU-145 prostate it was 2230 nM; with MDA-MB-435 it was 1690 nM. In addition, the values for the GI50 in the experiment with OVCAR-4 ovarian, in the experiment with UACC-257 melanoma and with UO-31 renal were 3090 nM, 2.29 µM and 1520 nM, respectively. In addition, the TGI was 5.29 µM with HT29 colon; 7.04 µM in the experiment on NCI-H23 lung; 6.11 µM in the experiment with MOLT-4 leukemia; 3.2 µM with 786-0 renal; 4.67 µM in the experiment on DU-145 prostate; 3.29 µM in the experiment with MDA-MB-435. The TGI with OVCAR-4 ovarian was 12.6 µM; in the experiment with UACC-257 melanoma it was 5.85 µM; in the experiment with UO-31 renal it was 2.93 µM.
`COC1C(O)C(C)OC(O[C@@H]2C[C@H]3CC[C@@H]4[C@H](CC[C@]5(C)[C@@H](C6=CC(=O)OC6)CC[C@]45O)[C@@]3(C)[C@H](O)C2)C1O` (some centres undefined): the TGI was 0.472 µM in the experiment with HT29 colon; 0.0231 µM with NCI-H23 lung; 0.132 µM in the experiment on NCI-H522 lung; < 0.0273 µM in the experiment with MOLT-4 leukemia; > 100 µM with 786-0 renal; 0.0812 µM in the experiment on DU-145 prostate. Further, the TGI was found to be 0.379 µM in the experiment with MDA-MB-435, 0.0379 µM with OVCAR-4 ovarian and 1.07 µM in the experiment on UACC-257 melanoma.
